Measurements reported in article PMC8729770, “In Vitro Evaluation of Antimicrobial Peptides from the Black Soldier Fly (Hermetia Illucens) against a Selection of Human Pathogens” (Microbiology Spectrum, 2022).
Read-outs that look alike come from different tables or passages of the source. Ends that are not written are not given here.

Columns and labels:
E. coli ATCC 8739 [1] = settings: ATCC 8739, 16 h
[2] = system: preformed P. aeruginosa ATCC 15442 biofilm; test: Biofilm eradication (postexposure); type: cell-based, Pseudomonas aeruginosa; settings: 128-0.5 μM, 16 h; resazurin
Procedure: After 16 h of incubation at 37°C and shaking at 110 rpm (New Brunswick Innova 4300), a resazurin assay was used as described by Gilbert-Girard et al. to determine the viability of the bacterial cells in the biofilm ([79]). After incubation, the growth medium was removed from the well plates and the bacterial biofilms were washed once with PBS to remove remaining planktonic cells. […] The fluorescence of the wells was measured at λexcitation = 550 nm and λemission = 590 using a microplate reader (Promega). Afterwards, a crystal violet staining was applied to determine the biomass of the biofilms ([79]). The resazurin solution was removed from the well plates and 200 μL of 100% ethanol (VWR Chemicals) was added to fix the biofilms. After 15 min of incubation, the ethanol was discarded from the wells and the plates were left to air dry for 30 min. […] The staining solution was removed after 5 min and the biofilms were washed with PBS. After air-drying for 10 min, the crystal violet stain was solubilized in 200 μL of 100% ethanol. […] The experiment was carried out three times. Polymyxin B sulfate (Sigma-Aldrich) was included as a reference. […] The next day, bacterial viability and biomass were determined with a resazurin assay and crystal violet assay as described earlier. […]

P. aeruginosa ATCC 9027 [3] = type: cell-based, Pseudomonas aeruginosa; settings: for MBC P. aeruginosa ATCC 9027: plated on MHA, ≥3 log reduction vs growth control
Procedure: To detect antimicrobial activity of the BSF AMPs, the peptide library underwent screening against a panel of microorganisms, consisting of S. aureus ATCC 6538, E. coli ATCC 8739, P. aeruginosa ATCC 9027, C. albicans B59630, and A. fumigatus B42928. Serial dilutions of the peptides were prepared from the DMSO stock solutions in sterile demineralized water in 96-well plates using an automated liquid-handling workstation (Beckman Coulter Biomek 3000) in end volumes of 10 μL. The final in-plate concentration of DMSO was <1%. Peptide concentrations ranged from 64 μM to 0.25 μM for the first evaluation, and from 32 μM to 0.016 μM for the independent repeat. As references, doxycycline (Sigma-Aldrich; S. aureus, E. coli, P. aeruginosa), flucytosine (Sigma-Aldrich; C. albicans), and econazole (Sigma-Aldrich; A. fumigatus) were used. Suspensions of a starting inoculum of 5 × 10^3 CFU/mL (E. coli, S. aureus, C. albicans, A. fumigatus) and 5 × 10^4 CFU/mL (P. aeruginosa) were prepared in MHB (bacterial species) or RPMI medium (fungal species) and 190 μL was added to the 96-well plates. Plates were incubated for 16 h (E. coli, S. aureus, P. aeruginosa), 24 h (C. albicans), or 48 h (A. fumigatus) at 37°C. After incubation, read-out of the antimicrobial activity was performed using a resazurin assay. Then, 20 μL of a 0.01% (wt/vol) resazurin (Sigma-Aldrich) solution was added to each well and plates were incubated for 15 min (S. aureus), 30 min (E. coli), 45 min (P. aeruginosa), 4 h (C. albicans), or 17 h (A. fumigatus) to allow resazurin reduction to take place. Fluorescence was read using a microplate reader (Telix) at λexcitation = 550 nm and λemission = 590. […] MIC values were determined visually. Medium in the wells with no visual growth was plated on MHA to detect the MBC, defined as ≥3 log reduction compared with the growth control.

K. pneumoniae ATCC 13883 = settings: ATCC 13883, 16 h
P. aeruginosa ATCC 9027 [4] = test: Outer membrane permeabilization with N-phenyl-naphthylamine; type: cell-based, Pseudomonas aeruginosa; settings: compared with 16 μM polymyxin B
Procedure: N-phenyl-naphthylamine (NPN; Tokyo chemical industry [TCI]) was used to study the permeabilization of the OM as described by […] et al. ([81]). Briefly, P. aeruginosa ATCC 9027 was grown until the mid-log phase in MHB. Afterwards, the cells were centrifuged (3,000 × g, 15 min) and resuspended in 5 mM HEPES buffer (pH 7.4) to an OD600 of 0.5. […] Fluorescence was measured every 5 min during 1 h using a microplate reader (Promega) with λexcitation = 350 nm and λemission = 420. Data were normalized based on the fluorescent signal in the presence of 50 μL HEPES buffer, 50 μL NPN, and 100 μL bacteria. Experiments were carried out in triplicate.

E. coli ATCC 8739 [5] = type: cell-based, Escherichia coli; settings: for MBC E. coli ATCC 8739: plated on MHA, ≥3 log reduction vs growth control
Outline: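 Peptides were serially diluted (64–0.25 μM, repeat 32–0.016 μM) against 5 × 10^3 CFU/mL inocula in MHB (bacteria) or RPMI (fungi) at 37°C for 16 h (bacteria), 24 h (C. albicans) or 48 h (A. fumigatus). MIC was read visually with resazurin readout; MBC was defined as ≥3 log reduction on MHA.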

RWYKKIFKPVEKAVQRVRDGTLQALGVAQQAANVYATAQGAQQQRHA-NH2 [Hill-Cec10]
MIC E. coli ATCC 8739 (E. coli ATCC 8739 [1]): 1 µM
effect on viability of preformed biofilm compared with the untreated control [2]: No significant effect
MBC P. aeruginosa ATCC 9027 (P. aeruginosa ATCC 9027 [3]; repeat 1): 16.00 µM
MIC P. aeruginosa ATCC 9027 (P. aeruginosa ATCC 9027 [3]; repeat 2, 32-0.016 μM, determined visually, 16 h): 2.00 µM
MBC P. aeruginosa ATCC 9027 (P. aeruginosa ATCC 9027 [3]; repeat 2): 2.00 µM
MIC K. pneumoniae (K. pneumoniae ATCC 13883): 0.5 to 1 µM
maximum NPN uptake (P. aeruginosa ATCC 9027 [4]; at 32 μM): 75%
concentration to achieve at least 50% NPN uptake (P. aeruginosa ATCC 9027 [4]): 4 µM
MIC E. coli ATCC 8739 (E. coli ATCC 8739 [5]; ATCC 8739, 16 h): 0.50 µM
MIC E. coli ATCC 8739 (E. coli ATCC 8739 [5]; repeat 1, 64-0.25 μM, determined visually, 16 h): 0.25 µM
MBC E. coli ATCC 8739 (E. coli ATCC 8739 [5]; repeat 1): 0.25 µM
MBC E. coli ATCC 8739 (E. coli ATCC 8739 [5]; repeat 2): 32.00 µM
